Drawing on US6066616A, “Somatostatin analogue composition and use in treating breast cancer” (Novartis AG, priority 1987, dated 2000), this text covers tolerated dose for one compound.

Molecules are shown by their SMILES.

The data set can be described thus: tolerated dose of octreotide. The settings on record: in vivo. The method, then:
Thus for octreotide, GI tumours may be treated initially with 0.05 mg once or twice a day by sub-cutaneous injection. Dosage can be increased to 0.2 mg three times daily. For acromegaly daily doses of from 100 to 300 μg s.c. may be used. Octreotide is tolerated at least to 1 mg.

Regarding `C[C@@H](O)[C@@H]1NC(=O)[C@H](CCCCN)NC(=O)[C@@H](Cc2c[nH]c3ccccc23)NC(=O)[C@H](Cc2ccccc2)NC(=O)[C@@H](NC(=O)[C@H](N)Cc2ccccc2)CSSC[C@@H](C(=O)N[C@H](CO)[C@@H](C)O)NC1=O` [Octreotide, octreotide], the tolerated dose is on record as ≥ 1 mg.
